Where “and” joins values, the source holds several entries; their conditions need not be identical. Identical values can stand only once.
How the values were obtained:
[1] = test system: PGE2 release from TERT keratinocytes (tKC); assay: PGE2 assay: inhibition of PGE2 release from UVB-stressed TERT keratinocytes, normalized to ATP; format: cell-based, human; details: PO 1 × 10−7 w/v %, actives alone or combination (observed), 15 mJ/cm2 UVB, 18-24 hours
Source text: Inhibiting the Cell's Inflammation Response to a Stressor-Prostaglandin E2 (“PGE2”) Assay.
PGE2 is a hormone-like substance that is known to participate in modulation of inflammation. Cellular inflammation is associated with a variety of hair, skin and scalp conditions, and thus inhibiting PGE2 activation vis-à-vis cellular inflammation may help treat these types of hair, skin and scalp conditions.
TERT keratinocytes (“tKC” are human keratinocytes which have been transfected with the human telomerase reverse transcriptase gene to immortalize the cells) were obtained from Jerry Shay, University of Texas, Southwestern and plated at 40,000 cells/well into 24-well plates in 1 ml/well volume. EpiLife Medium (Life Technologies cat #MEPICFPRF500) supplemented with keratinocyte growth supplement (Life technologies cat #S-001-5) was used as the assay media. The cells were grown to confluence/near confluence, (typically 24 hours after plating 40,000 cells/well in 24 well plate) and then subjected to 15 mJ/cm^2 UVB-stress (typically […] in BioSun). The test compositions (strobilurins, piroctone olamine, strobilurins+piroctone olamine, and positive control 10 uM idebenone) were added to replace the medium (EpiLife Medium with 0.1% final concentration of DMSO—briefly, 1000× stocks of actives and combinations made in 100% DMSO and diluted into Epilife media 1 to 1000), and the plates were incubated for 18-24 hours.
The supernatant is removed from each well, and the cells are rinsed with 2 ml/well medium (without supplements). A Cell Titer-Glo assay (Promega cat #G7571; Madison WI) is used to measure ATP activity, is conducted on the cells for normalization. The supernatant is tested in a PGE2 assay (Prostaglandin E2 Assay kit from Cisbio Bioassays cat #62P2APEB) according to the manufacturer's instructions. The PGE2 results are normalized to ATP activity. The PGE2 quantitation (pg/mL) from the supernatant is divided by the normalization factor (treatment ATP/control ATP).
Example Calculation to Compute PGE2 Inhibition by Strobilurin: • Luminescence of vehicle control in ATP assay=704567 • Luminescence of strobilurin treatment in ATP assay=678903 • Normalization factor for strobilurin treatment=1.038 • PGE2 quantitation for vehicle control=2458 pg/mL PGE2 • PGE2 quantitation for strobilurin treatment=2347 pg/mL PGE2 • Normalized PGE2 values • control=2458/1=2458 • strobilurin=2347/1.038=2261 • % inhibition for strobilurin=[100×(2458−[…])/2458]=8%
Student's T-Test (equal variance, 2 sided) are used to calculate p-values between observed combinations and expected combinations with p-value<0.05 considered statistically significant. Expected combination values are calculated by adding the PGE2 inhibition values of strobilurins alone and piroctone olamine alone. Synergy factor is simply the ratio of observed combination/expected combination. Synergy factors greater than 1.0 with a p-value<0.05 are deemed synergistic.

[2] = general statement, no method; cited from earlier work
[3] = strobilurin 1 × 10−7 w/v %, strobilurin:PO ratio 1:1
[4] = strobilurin 1 × 10−8 w/v %, strobilurin:PO ratio 1:10
[5] = strobilurin 1 × 10−9 w/v %, strobilurin:PO ratio 1:50
[6] = strobilurin 4 × 10−7 w/v %, strobilurin:PO ratio 4:1

| SMILES | % PGE2 Inhibition [1, 3] [%] | % PGE2 Inhibition [1, 4] [%] | % PGE2 Inhibition [1, 5] [%] | % PGE2 Inhibition [1, 6] | solubility in water [2] |
| --- | --- | --- | --- | --- | --- |
| CON=C(C(=O)OC)c1ccccc1CON=C(C)c1cccc(C(F)(F)F)c1 [trifloxystrobin] | 3.2 | 0.5 | 0.7 | 8.3% | – |
| CO/N=C(/C1=NOCCO1)c1ccccc1Oc1ncnc(Oc2ccccc2Cl)c1F [fluoxastrobin] | 5.6 | 3.3 | 1 | 8.6% | – |
| Cc1cc(CC(C)CC(C)(C)C)n(O)c(=O)c1.NCCO (stereo not drawn) [PO, piroctone olamine] | 3.2 | 2.6 | 2.4 | 2.8% and 2.2% | – |
| CO/N=C(/C(=O)OC)c1ccccc1COc1ccccc1C [kresoxim methyl] | 4.1 | 7.3 | 3.2 | 6.7% | – |
| CNC(=O)/C(=N/OC)c1ccccc1COc1cc(C)ccc1C [dimoxystrobin] | 18.9 | 7.6 | 4.1 | 12.4% | – |
| CO/C=C(/C(=O)OC)c1ccccc1COc1cccc(C(F)(F)F)n1 [picoxystrobin] | 2.5 | 8.4 | 8.9 | 16.7% | – |
| CNC(=O)/C(=N/OC)c1ccccc1CO/N=C(C)/C(=N/OC)C(/C)=N/OC [orysastrobin] | 8.2 | 15.6 | 1.1 | 4.7% | – |
| CO/C=C(/C(=O)OC)c1ccccc1Oc1cc(Oc2ccccc2C#N)ncn1 [azoxystrobin] | 8 | 1 | 1 | 13% | low solubility in water |

Source: patent US11980612B2, “Synergistic anti-inflammatory compositions” (The Procter & Gamble Company, priority 2020, dated 2024)
